Test results from patent publication US20250304717A1, “CAMPTOTHECIN DERIVATIVE AND LIGAND-DRUG CONJUGATE” (HAINAN SIMCERE ZAIMING PHARMACEUTICAL CO., LTD., priority 2022, published 2025).
Where two headings read alike, the source gives them in different places.

Columns and labels:
SKBR3 cells = test: Anti-tumor cell proliferation activity of compound of formula (D-H), Cell-Titer Glo, SKBR3; type: cell-based, human; conditions: Homo sapiens, SK-BR-3, 120 h, read-out: SKBR3 Antiproliferative activity IC50 (nM), SKBR3 cells, 5 days
Procedure: (§1) Cell culture: HCT116 cells and SKBR3 cells were cultured with a McCoy's 5a medium containing 10% fetal bovine serum+1% penicillin-streptomycin at 37° C. with 5% CO2, and OVCAR3 cells were cultured with a 1640 medium containing 20% fetal bovine serum+2 μg/mL bovine insulin+1% penicillin-streptomycin at 37° C. with 5% CO2. Cells at logarithmic growth phase were available for the experiment.
(§2) Cell proliferation activity test: The Cell-Titer Glo reagent was used to test the compound for inhibitory activity on proliferation of the three cell strains HCT116, SKBR3, and OVCAR3. HCT116 cells (1500 per well), SKBR3 cells (3000 per well), and OVCAR3 cells (5000 per well) were seeded on 96-well plates and incubated at 37° C. with 5% CO2 for 24 h. After a solution of the compound to be detected was added (the compound was dissolved in DMSO so that the compound concentration was 1 mM, then the compound was diluted to […] in DMSO at 9 concentrations in a 3-fold dilution, and 10 μL of the prepared compound solution was transferred to the 96-well plate so that the final concentration was 0-300 nM), the mixture was incubated at 37° C. with 5% CO2. HCT116 cells were cultured for 3 days, and SKBR3 cells and OVCAR3 cells were cultured for 5 days. The Cell-Titer Glo reagent was added and the cell activity was measured.
(§3) A negative control group and a positive control group were respectively used as Bottom and Top. The negative control group was not added with cells, only added with the culture medium in the same volume, and other operations were consistent with those of the experimental group. The positive control group was not added with the test drug, and other operations were consistent with those of the experimental group.
(§4) Data analysis: % Inhibition was calculated, and compound IC50 was fitted.
(§5) % Inhibition=1-100%×(Signal−Bottom)/(Top−Bottom).
(§6) Signal referred to the signal value of the experimental group, Bottom referred to the average signal value of the negative control group, and Top referred to the average signal value of the positive control group.

HCT116 cells = test: Anti-tumor cell proliferation activity of compound of formula (D-H), Cell-Titer Glo, HCT116; type: cell-based; conditions: Homo sapiens, HCT-116, 72 h
Procedure: as §1, §2, §3, §4, §5, §6

OVCAR3 cells = test: Anti-tumor cell proliferation activity of compound of formula (D-H), Cell-Titer Glo, OVCAR3; type: cell-based; conditions: Homo sapiens, OVCAR-3, 120 h, read-out: OVCAR3 Antiproliferative activity IC50 (nM)
Procedure: as §1, §2, §3, §4, §5, §6

[1] = read-out: HCT116 Antiproliferative activity IC50 (nM), HCT116 cells, 3 days

Row | SMILES | IC50 (SKBR3 cells) | IC50 (HCT116 cells; [1]) | IC50 (OVCAR3 cells) | IC50 (HCT116 cells; HCT116 cells, 3 days, read-out: HCT116 Antiproliferative activity IC50)
1 | CC[C@@]1(O)C(=O)OCc2c1cc1n(c2=O)Cc2c-1nc1cc(F)c(Cl)cc1c2CNC(=O)CO [Compound 3, (S)-N-((9-chloro-4-ethyl-8-fluoro-4-hydroxy-3,14-dioxo-3,4,12,14-tetrahydro-1H-pyrano[3′,4′:6,7]indolizino[1,2-b]quinolin-11-yl)methyl)-2-hydroxyacetamide] | 3.6 nM |  |  | 
2 | CC[C@@]1(O)C(=O)OCc2c1cc1n(c2=O)Cc2c-1nc1cc(Cl)c3c(c1c2CNC(=O)C(O)C1CC1)CCC3 (stereo partly drawn) [Compound 34, N—(((S)-4-chloro-8-ethyl-8-hydroxy-9,12-dioxo-2,3,8,9,12,14-hexahydro-1H,11H-cyclopenta[f]pyrano[3′,4′:6,7]indolizino[1,2-b]quinolin-15-yl)methyl)-2-cyclopropyl-2-hydroxyacetamide] |  | < 10 nM | 0.6 nM | 
3 | CC[C@@]1(O)C(=O)OCc2c1cc1n(c2=O)Cc2c-1nc1cc3c(c(Cl)c1c2CNC(=O)C(O)C1CC1)OCO3 (stereo partly drawn) [Compound 30, N—(((S)-15-chloro-7-ethyl-7-hydroxy-8,11-dioxo-7,8,11,13-tetrahydro-10H-[1,3]dioxolo[4,5-g]pyrano[3′,4′:6,7]indolizino[1,2-b]quinolin-14-yl)methyl)-2-cyclopropyl-2-hydroxyacetamide] |  | < 10 nM | 0.4 nM | 
4 | CC[C@@]1(O)C(=O)OCc2c1cc1n(c2=O)Cc2c-1nc1cc(Cl)c(C)cc1c2CNC(=O)C(O)C(C)C (stereo partly drawn) [Compound 18, N—(((S)-8-chloro-4-ethyl-4-hydroxy-9-methyl-3,14-dioxo-3,4,12,14-tetrahydro-1H-pyrano[3′,4′:6,7]indolizino[1,2-b]quinolin-11-yl)methyl)-2-hydroxy-3-methylbutanamide] | 5.1 nM | 10 to 100 nM |  | 
5 | [2H]C1([2H])Oc2cc3nc4c(c(CNC(=O)[C@@H](O)C5CC5)c3cc2O1)Cn1c-4cc2c(c1=O)COC(=O)[C@]2(O)CC [Compound 19-P1, (S)-2-cyclopropyl-N—(((S)-7-ethyl-7-hydroxy-8,11-dioxo-7,8,11,13-tetrahydro-10H-[1,3]dioxolo[14,5-g]pyrano[3′,4′:6,7]indolizino[1,2-b]quinolin-14-yl-2,2-d2)methyl)-2-hydroxyacetamide] |  | < 10 nM | 0.6 nM | 
6 | CC[C@@]1(O)C(=O)OCc2c1cc1n(c2=O)Cc2c-1nc1cc(F)c(Br)cc1c2CNC(=O)CO [Compound 5, (S)-N-((9-bromo-4-ethyl-8-fluoro-4-hydroxy-3,14-dioxo-3,4,12,14-tetrahydro-1H-pyrano[3′,4′:6,7]indolizino[1,2-b]quinolin-11-yl)methyl)-2-hydroxyacetamide] | 3.3 nM |  |  | 
7 | CC[C@@]1(O)C(=O)OCc2c1cc1n(c2=O)Cc2c-1nc1cc(F)c(C)cc1c2CNC(=O)C1(O)CC1 [Compound 9, (S)-N-((4-ethyl-8-fluoro-4-hydroxy-9-methyl-3,14-dioxo-3,4,12,14-tetrahydro-1H-pyrano[3′,4′:6,7]indolizino[1,2-b]quinolin-11-yl)methyl)-1-hydroxycyclopropane-1-carboxamide] | 2.1 nM | < 10 nM |  | 
8 | CC[C@@]1(O)C(=O)OCc2c1cc1n(c2=O)Cc2c-1nc1cc(Cl)c3occc3c1c2CNC(=O)C(O)C1CC1 (stereo partly drawn) [Compound 28, N—(((S)-4-chloro-8-ethyl-8-hydroxy-9,12-dioxo-8,9,12,14-tetrahydro-11H-furo[3,2-f]pyrano[3′,4′:6,7]indolizino[1,2-b]quinolin-15-yl)methyl)-2-cyclopropyl-2-hydroxyacetamide] |  | < 10 nM |  | 
9 | CC[C@@]1(O)C(=O)OCc2c1cc1n(c2=O)Cc2c-1nc1cc3c(c(F)c1c2CNC(=O)[C@@H](O)C1CC1)OCO3 [Compound 35-P1, 2-cyclopropyl-N-(((S)-7-ethyl-15-fluoro-7-hydroxy-8,11-dioxo-7,8,11,13-tetrahydro-10H-[1,3]dioxolo[4,5-g]pyrano[3′,4′:6,7]indolizino[1,2-b]quinolin-14-yl)methyl)-2-hydroxyacetamide] |  |  |  | < 10 nM
10 | CC[C@@]1(O)C(=O)OCc2c1cc1n(c2=O)Cc2c-1nc1cc3c(cc1c2CNC(=O)CO)OCCO3 [Compound 1, (S)-N-((8-ethyl-8-hydroxy-9,12-dioxo-2,3,8,9,12,14-hexahydro-11H-[1,4]dioxino[2,3-g]pyrano[3′,4′:6,7]indolizino[1,2-b]quinolin-15-yl)methyl)-2-hydroxyacetamide] | 8.5 nM |  |  | 
11 | CC[C@@]1(O)C(=O)OCc2c1cc1n(c2=O)Cc2c-1nc1cc(Cl)c3occc3c1c2CNC(=O)CO [Compound 27, (S)-N-((4-chloro-8-ethyl-8-hydroxy-9,12-dioxo-8,9,12,14-tetrahydro-11H-furo[3,2-f]pyrano[3′,4′:6,7]indolizino[1,2-b]quinolin-15-yl)methyl)-2-hydroxyacetamide] |  | 10 to 100 nM |  | 
12 | CC[C@@]1(O)C(=O)OCc2c1cc1n(c2=O)Cc2c-1nc1cc(Cl)c(C)cc1c2CNC(=O)C1(O)CC1 [Compound 10, (S)-N-((8-chloro-4-ethyl-4-hydroxy-9-methyl-3,14-dioxo-3,4,12,14-tetrahydro-1H-pyrano[3′,4′:6,7]indolizino[1,2-b]quinolin-11-yl)methyl)-1-hydroxycyclopropane-1-carboxamide] | 2.3 nM | < 10 nM |  | 
13 | CC[C@@]1(O)C(=O)OCc2c1cc1n(c2=O)Cc2c-1nc1cc(Cl)c(C)cc1c2CNC(=O)C(O)C1CC1 (stereo partly drawn) [Compound 11, N—(((S)-8-chloro-4-ethyl-4-hydroxy-9-methyl-3,14-dioxo-3,4,12,14-tetrahydro-1H-pyrano[3′,4′:6,7]indolizino[1,2-b]quinolin-11-yl)methyl)-2-cyclopropyl-2-hydroxyacetamide] | 3.2 nM |  |  | 
14 | CC[C@@]1(O)C(=O)OCc2c1cc1n(c2=O)Cc2c-1nc1ccc3occc3c1c2CNC(=O)CO [Compound 20, (S)-N-((8-ethyl-8-hydroxy-9,12-dioxo-8,9,12,14-tetrahydro-11H-furo[3,2-f]pyrano [3′,4′:6,7]indolizino[1,2-b]quinolin-15-yl)methyl)-2-hydroxyacetamide] | 10.5 nM | 10 to 100 nM |  | 
15 | [2H]C1([2H])Oc2cc3nc4c(c(CNC(=O)C(O)C5CC5)c3cc2O1)Cn1c-4cc2c(c1=O)COC(=O)[C@]2(O)CC (stereo partly drawn) [Compound 19, 2-cyclopropyl-N—(((S)-7-ethyl-7-hydroxy-8,11-dioxo-7,8,11,13-tetrahydro-10H-[1,3]dioxolo[4,5-g]pyrano[3′,4′:6,7]indolizino[1,2-b]quinolin-14-yl-2,2-d2)methyl)-2-hydroxyacetamide] |  | < 10 nM |  | 
16 | CC[C@@]1(O)C(=O)OCc2c1cc1n(c2=O)Cc2c-1nc1cc3c(c([N+](=O)[O-])c1c2CNC(=O)C(O)C1CC1)OCO3 (stereo partly drawn) [Compound 29, 2-cyclopropyl-N—(((S)-7-ethyl-7-hydroxy-15-nitro-8,11-dioxo-7,8,11,13-tetrahydro-10H-[1,3]dioxolo[4,5-g]pyrano[3′,4′:6,7]indolizino[1,2-b]quinolin-14-yl)methyl)-2-hydroxyacetamide] |  | 10 to 100 nM |  | 
17 | CC[C@@]1(O)C(=O)OCc2c1cc1n(c2=O)Cc2c-1nc1cnc(Br)cc1c2CNC(=O)CO [Compound 15, (S)-N-((9-bromo-4-ethyl-4-hydroxy-3,14-dioxo-3,4,12,14-tetrahydro-1H-pyrano[3′,4′:6,7]indolizino[1,2-b][1,7]naphthyridin-11-yl)methyl)-2-hydroxyacetamide] |  | 10 to 100 nM |  | 
18 | CC[C@@]1(O)C(=O)OCc2c1cc1n(c2=O)Cc2c-1nc1cc(Cl)c(C)cc1c2CNC(=O)C(C)(C)O [Compound 17, (S)-N-((8-chloro-4-ethyl-4-hydroxy-9-methyl-3,14-dioxo-3,4,12,14-tetrahydro-1H-pyrano[3′,4′:6,7]indolizino[1,2-b]quinolin-11-yl)methyl)-2-hydroxy-2-methylpropanamide] | 2.7 nM | < 10 nM |  | 
19 | CC[C@@]1(O)C(=O)OCc2c1cc1n(c2=O)Cc2c-1nc1ccc3c(c1c2CNC(=O)CO)CCC3 [Compound 7, (S)-N-((8-ethyl-8-hydroxy-9,12-dioxo-2,3,8,9,12,14-hexahydro-1H,11H-cyclopenta[f]pyrano[3′,4′:6,7]indolizino[1,2-b]quinolin-15-yl)methyl)-2-hydroxyacetamide] |  | 10 to 100 nM |  | 
20 | CC[C@@]1(O)C(=O)OCc2c1cc1n(c2=O)Cc2c-1nc1cc(F)c(Cl)c(F)c1c2CNC(=O)C1(O)CC1 [Compound 16, (S)-N-((9-chloro-4-ethyl-8,10-difluoro-4-hydroxy-3,14-dioxo-3,4,12,14-tetrahydro-1H-pyrano[3′,4′:6,7]indolizino[1,2-b]quinolin-11-yl)methyl)-1-hydroxycyclopropane-1-carboxamide] | 2.3 nM | < 10 nM |  | 
